Legend:
[1] = tested on: Bax mediated cytochrome c release, Bcl-xL; assay: Cytochrome c release from purified mitochondria by tBid and Bax in the presence of Bcl-xL; type: biochemical; details: mouse liver mitochondria; 5 nM tBid, 50 nM Bax, 300 nM Bcl-xL; 15 min, 30 °C; Western blot; pre-incubation pH 9, 30 °C
Procedure: (A–E) in vitro reconstitution assay on liposome permeabilization. […] The treated Bcl-xL was then added to reactions containing ANTS-DPX liposomes, 100 nM Bax and 20 nM of either cBid (A,B) or cBidmt1(C,D) at pH 7. Liposome permeabilization was quantified by fluorescence after 5h incubation at 37 °C where 100% release was defined as the fluorescence change due to lipid solubilization with 1% Triton X-100. […] Error bars, std. dev. n = 3. To compare between the TCTP treated groups and the Control group statistically, two-way ANOVA test was performed for (A–D) and one-way ANOVA test was performed for (E). […] Colored asterisks above each data point indicate the statistical significance (*p < 0.05; **p < 0.01, no asterisks if p ≥ 0.05). A complete statistical analysis is provided in Supplementary Table 2–4. […] Cyto c extra-mito: in the supernatant, analysed by Western blot. […]
to highlight the pre-incubation), pH 9, 30 C° before being added to the mitochondria at their final concentrations. […] Cytochrome c was detected in the mitochondrial fraction (Cyto c intra-mito) or in the supernatant (Cyto c extra-mito) by Western blot analysis. […]
Cytochrome c release assay. […] Mitochondrial pellets and the corresponding supernatant fractions were subjected to SDS-polyacrylamide gel electrophoresis and analyzed by Western blotting for cytochrome c.

[2] = tested on: thymocytes from TCTP^+/− mice; assay: Complementation (viability) of γ-irradiated TCTP+/− thymocytes; type: cell-based, mouse; details: γ-irradiation 2.5 Gy; overnight culture; 0 to 1000 nM
Source text: Figure 4 Molecular/functional analysis of the h1 (P1) subregion of BH3-TCTP. […]
Peptides used for in vitro assays:
WT-TCTP (11-31): […]
R21A-TCTP (11-31): […]
Hybrid Bax/TCTP: […]
Peptides used for in vivo assays:
WT-TCTP (1-31) : […]
Hybrid Bax-TCTP: […]
TCTP-FLAG peptides used for in vivo assays:
WT-TCTP (1-31)-FLAG : […] DYKDDDDK-OH
TCTP-Bax-TCTP-FLAG: […]-OH […]
subdomain in the BH3 motif is underlined. Peptides were purchased from Smartox […]
Complementation and transduction experiments
In order to complement the haploinsufficient TCTP+/- mice with exogenous TCTP, we took advantage of the fact that the first N-terminal fragment of TCTP functions as a Protein Transduction Domain (PTD), enabling TCTP to penetrate into the cell by a mechanism hitherto […]
not well understood23,27-29. […]
of γ irradiation) and cultured, at a concentration of 10^7 cells/ml, overnight in the presence of […]
20) at concentrations ranging from 0-1000nM. For the transduction assays using WT-TCTP- […]
concentrations were 10 microM, 50 microM and 100 microM.
γ-irradiated thymocytes were fixed by adding 500ul of PFA 4% and incubated for 20 min at room temperature. The cells were washed twice with PBS and permeabilized for 10 min with 0.2% triton X-100 in PBS at room temp. The cells were washed twice with PBS. Proteins were blocked in Blocking buffer (1% BSA 0.5% Tween in PBS) 1h at room temperature. The primary antibody was added with blocking buffer and placed in a rotating wheel overnight in a cold room.
Cells were then washed 3 times with PBS and incubated with secondary antibody with blocking buffer 1h at room temperature. The cells were washed 3 times with PBS and suspended in 200 µL PBS and used for Flow Cytometry or further used for immunohistochemistry: 5 µl of each sample were mixed with 5 µl of ProLong® Gold antifade reagent (Life Technologies) and visualized, using the IX73 inverted fluorescence microscope and the cellSens™ Dimension […]
FACS analysis (BD Accuri™ C6 Cytometer (BD Biosciences) of incorporation of exogenous

## TCTP: Translationally Controlled Tumor Protein (TCTP/tpt1), recombinant full-length
[1]
  inhibition of cytochrome c release in the presence of Bcl-xL: inhibit cytochrome c release in a concentration-dependent manner
[2]
  rescue of TCTP+/− haploinsufficient phenotype / anti-apoptotic function: rescue completely the TCTP^+/− haploinsufficient phenotype

Reference: PMC4728560 (Scientific Reports, 2016)
